± gives the expanded uncertainty stated by the source.
Legend:
[1] = osmotic coefficient (dimensionless); mn = molality of the nth substance listed, in mol/kg; conditions: 298.15 K, Liquid, isopiestic method
[2] = mean ionic activity coefficient (dimensionless); mn = molality of the nth substance listed, in mol/kg; conditions: 298.15 K, Liquid, Isopiestic method

CCCC[N+](CC)(CC)CCCC.[I-] [N-butyl-N,N-diethylbutan-1-aminium iodide] + O
osmotic coefficient ([1]; m1 = 0.0372): 0.828 ± 0.01
osmotic coefficient ([1]; m1 = 0.0441): 0.813 ± 0.011
osmotic coefficient ([1]; m1 = 0.0491): 0.805 ± 0.011
osmotic coefficient ([1]; m1 = 0.0634): 0.782 ± 0.011
osmotic coefficient ([1]; m1 = 0.0706): 0.772 ± 0.011
osmotic coefficient ([1]; m1 = 0.0749): 0.768 ± 0.011
osmotic coefficient ([1]; m1 = 0.0839): 0.756 ± 0.011
osmotic coefficient ([1]; m1 = 0.0992): 0.738 ± 0.012
osmotic coefficient ([1]; m1 = 0.1069): 0.731 ± 0.012
osmotic coefficient ([1]; m1 = 0.1133): 0.723 ± 0.012
osmotic coefficient ([1]; m1 = 0.1221): 0.716 ± 0.012
osmotic coefficient ([1]; m1 = 0.1938): 0.654 ± 0.014
osmotic coefficient ([1]; m1 = 0.1969): 0.649 ± 0.014
osmotic coefficient ([1]; m1 = 0.2338): 0.625 ± 0.015
osmotic coefficient ([1]; m1 = 0.2705): 0.61 ± 0.015
osmotic coefficient ([1]; m1 = 0.2758): 0.605 ± 0.015
osmotic coefficient ([1]; m1 = 0.3292): 0.581 ± 0.016
osmotic coefficient ([1]; m1 = 0.3751): 0.559 ± 0.017
osmotic coefficient ([1]; m1 = 0.4189): 0.546 ± 0.018
osmotic coefficient ([1]; m1 = 0.4343): 0.541 ± 0.018
osmotic coefficient ([1]; m1 = 0.4687): 0.532 ± 0.018
osmotic coefficient ([1]; m1 = 0.5317): 0.508 ± 0.019
osmotic coefficient ([1]; m1 = 0.58): 0.497 ± 0.019
osmotic coefficient ([1]; m1 = 0.6463): 0.481 ± 0.02
osmotic coefficient ([1]; m1 = 0.7082): 0.463 ± 0.021
osmotic coefficient ([1]; m1 = 0.758): 0.456 ± 0.021
osmotic coefficient ([1]; m1 = 0.7808): 0.451 ± 0.021
osmotic coefficient ([1]; m1 = 0.9199): 0.426 ± 0.022
osmotic coefficient ([1]; m1 = 0.9899): 0.416 ± 0.023
osmotic coefficient ([1]; m1 = 1.1): 0.401 ± 0.023
osmotic coefficient ([1]; m1 = 1.178): 0.389 ± 0.024
osmotic coefficient ([1]; m1 = 1.324): 0.375 ± 0.024
osmotic coefficient ([1]; m1 = 1.426): 0.371 ± 0.024
osmotic coefficient ([1]; m1 = 1.548): 0.366 ± 0.025
osmotic coefficient ([1]; m1 = 1.66): 0.362 ± 0.025
osmotic coefficient ([1]; m1 = 1.76): 0.363 ± 0.025
osmotic coefficient ([1]; m1 = 1.926): 0.366 ± 0.025
osmotic coefficient ([1]; m1 = 2.042): 0.377 ± 0.024
osmotic coefficient ([1]; m1 = 2.078): 0.383 ± 0.024
osmotic coefficient ([1]; m1 = 2.108): 0.384 ± 0.024
osmotic coefficient ([1]; m1 = 2.136): 0.386 ± 0.024
osmotic coefficient ([1]; m1 = 2.179): 0.4 ± 0.023
osmotic coefficient ([1]; m1 = 2.218): 0.405 ± 0.023
osmotic coefficient ([1]; m1 = 2.389): 0.434 ± 0.022
mean ionic activity coefficient ([2]; m1 = 0.0372): 0.7064 ± 0.0001
mean ionic activity coefficient ([2]; m1 = 0.0441): 0.6798 ± 0.0001
mean ionic activity coefficient ([2]; m1 = 0.0491): 0.6621 ± 0.0001
mean ionic activity coefficient ([2]; m1 = 0.0634): 0.6174 ± 0.0001
mean ionic activity coefficient ([2]; m1 = 0.0706): 0.5976 ± 0.0001
mean ionic activity coefficient ([2]; m1 = 0.0749): 0.5865 ± 0.0001
mean ionic activity coefficient ([2]; m1 = 0.0839): 0.5647 ± 0.0001
mean ionic activity coefficient ([2]; m1 = 0.0992): 0.5317 ± 0.0001
mean ionic activity coefficient ([2]; m1 = 0.1069): 0.5166 ± 0.0001
mean ionic activity coefficient ([2]; m1 = 0.1133): 0.5048 ± 0.0001
mean ionic activity coefficient ([2]; m1 = 0.1221): 0.4896 ± 0.0001
mean ionic activity coefficient ([2]; m1 = 0.1938): 0.3939 ± 0.0001
mean ionic activity coefficient ([2]; m1 = 0.1969): 0.3912 ± 0.0001
mean ionic activity coefficient ([2]; m1 = 0.2338): 0.3566 ± 0.0001
mean ionic activity coefficient ([2]; m1 = 0.2705): 0.3248 ± 0.0001
mean ionic activity coefficient ([2]; m1 = 0.2758): 0.3213 ± 0.0001
mean ionic activity coefficient ([2]; m1 = 0.3292): 0.2868 ± 0.0001
mean ionic activity coefficient ([2]; m1 = 0.3751): 0.2634 ± 0.0001
mean ionic activity coefficient ([2]; m1 = 0.4189): 0.2415 ± 0.0001
mean ionic activity coefficient ([2]; m1 = 0.4343): 0.2351 ± 0.0001
mean ionic activity coefficient ([2]; m1 = 0.4687): 0.2213 ± 0.0001
mean ionic activity coefficient ([2]; m1 = 0.5317): 0.2037 ± 0.0001
mean ionic activity coefficient ([2]; m1 = 0.58): 0.1904 ± 0.0001
mean ionic activity coefficient ([2]; m1 = 0.6463): 0.1748 ± 0.0001
mean ionic activity coefficient ([2]; m1 = 0.7082): 0.166 ± 0.0001
mean ionic activity coefficient ([2]; m1 = 0.758): 0.1556 ± 0.0001
mean ionic activity coefficient ([2]; m1 = 0.7808): 0.1521 ± 0.0001
mean ionic activity coefficient ([2]; m1 = 0.9199): 0.1348 ± 0.0001
mean ionic activity coefficient ([2]; m1 = 0.9899): 0.1266 ± 0.0001
mean ionic activity coefficient ([2]; m1 = 1.1): 0.1171 ± 0.0001
mean ionic activity coefficient ([2]; m1 = 1.178): 0.1131 ± 0.0001
mean ionic activity coefficient ([2]; m1 = 1.324): 0.1042 ± 0.0001
mean ionic activity coefficient ([2]; m1 = 1.426): 0.0988 ± 0.0001
mean ionic activity coefficient ([2]; m1 = 1.548): 0.0944 ± 0.0001
mean ionic activity coefficient ([2]; m1 = 1.66): 0.0909 ± 0.0001
mean ionic activity coefficient ([2]; m1 = 1.76): 0.0885 ± 0.0001
mean ionic activity coefficient ([2]; m1 = 1.926): 0.0852 ± 0.0001
mean ionic activity coefficient ([2]; m1 = 2.042): 0.0821 ± 0.0001
mean ionic activity coefficient ([2]; m1 = 2.078): 0.0809 ± 0.0001
mean ionic activity coefficient ([2]; m1 = 2.108): 0.0807 ± 0.0001
mean ionic activity coefficient ([2]; m1 = 2.136): 0.0802 ± 0.0001
mean ionic activity coefficient ([2]; m1 = 2.179): 0.0789 ± 0.0001
mean ionic activity coefficient ([2]; m1 = 2.218): 0.0782 ± 0.0001
mean ionic activity coefficient ([2]; m1 = 2.389): 0.0748 ± 0.0001
